Test results: US6451812B1, “Farnesyl protein transferase inhibitors for treating arthropathies” (Janssen Pharmaceutica N.V., priority 1998, dated 2002)

Tested on: DBA1/J mice
Assay: Collagen type II induced arthritis, prophylactic treatment (Example 1)
Format: in vivo
Details: for Ankylosis score / Incidence of ankylosis (% of animals affected) / Incidence of arthritis (% of animals affected) / Mean Arthritic Score / Mean number of affected paws: 100 mpk (2 ×) orally, treated day 20-36
Description: Male DBA1/J mice were immunized intradermally with collagen type II emulsified in complete Freund's Adjuvant on day 0 and day 21. Treatment of mice was started on day 20 (10 animals/treatment group). Mice were treated orally twice daily (6 hours time interval) with vehicle [DMSO: cremophor: 0.9% NaCl solution, 1:1:8 (v:v:v)] or compound 75 at a dose of 100 mg/kg. Three times per week symptoms of arthritis were scored. Animals were treated till day 36, at day 37 animals were sacrificed, blood was collected for analysis of anti-collagen antibodies, radiographs were made and paws were fixed for histological evaluation. […] Trained lab personnel evaluated the severity and incidence of the arthritic symptoms at regular intervals without knowing which animals had received vehicle or drug.
In Table 9, the mean arthritic score is shown. For each paw, a score ranging from 0 (normal) to 2 (maximal redness and swelling) is given. The score for the 4 paws is summed up and averaged for the 10 animals per group (=Mean arthritic score).
Table 11 summarizes the results of the observations for the occurrence of ankylosis as the arthritis progresses. Each paw is scored as follows: 0 for no ankylosis, 1 for ankylosis. Again the results for the four paws are summed up and averaged for the 10 animals. At the end of the experiment, the ankylosis score in the vehicle group (3.1) is clearly higher than that in the group treated with Compound 75 (1.2).

[1] = 100 mg/kg orally twice daily, day 20-36
[2] = 100 mg/kg orally twice daily, versus vehicle

Q: How did the lethalities [1] turn out when `Cn1cncc1C(N)(c1ccc(Cl)cc1)c1ccc2c(c1)c(-c1cccc(Cl)c1)cc(=O)n2C` (single isomer, unassigned; (+)) [Compound 75, (+)-6-[amino(4-chlorophenyl)(1-methyl-1H-imidazol-5-yl)methyl]-4-(3-chlorophenyl)-1-methyl-2(1H)-quinolinone] was run?
A: no lethalities were observed

Q: And the signs of toxicity [1]?
A: did not show any signs of toxicity

Q: And the “effect on mean arthritic score (in words)” value [2]?
A: clearly suppresses the arthritic score

Q: What about the “effect on mean number of affected paws (in words)” value [2] of the same molecule?
A: reduces that number

Q: And the “effect on mean arthritic score (in words)” value (100 mg/kg orally twice daily, versus vehicle, listed as compound 75)?
A: reduces the mean arthritic score

Q: And the incidence of ankylosis (100 mg/kg orally twice daily, summary in text of Table 12)?
A: 60%

Q: And the Ankylosis score (day 22 after immunization)?
A: 0.00

Q: And the “Incidence of ankylosis (% of animals affected)” value (day 22 after immunization)?
A: 0%

Q: What about the “Incidence of arthritis (% of animals affected)” value (day 22 after immunization) of the same molecule?
A: 0%

Q: What about the “Mean Arthritic Score” value (day 22 after immunization) of the same molecule?
A: 0.00

Q: And the “Mean number of affected paws” value (day 22 after immunization)?
A: 0.00

Q: What about the Ankylosis score (day 24 after immunization) of the same molecule?
A: 0.00

Q: What about the “Incidence of ankylosis (% of animals affected)” value (day 24 after immunization) of the same molecule?
A: 0%

Q: And the “Incidence of arthritis (% of animals affected)” value (day 24 after immunization)?
A: 20%

Q: What about the “Mean Arthritic Score” value (day 24 after immunization) of the same molecule?
A: 0.05

Q: And the “Mean number of affected paws” value (day 24 after immunization)?
A: 0.20

Q: And the Ankylosis score (day 27 after immunization)?
A: 0.30

Q: What about the “Incidence of ankylosis (% of animals affected)” value (day 27 after immunization) of the same molecule?
A: 10%

Q: And the “Incidence of arthritis (% of animals affected)” value (day 27 after immunization)?
A: 40%

Q: What about the “Mean Arthritic Score” value (day 27 after immunization) of the same molecule?
A: 0.60

Q: What about the “Mean number of affected paws” value (day 27 after immunization) of the same molecule?
A: 0.80

Q: And the Ankylosis score (day 29 after immunization)?
A: 0.80

Q: What about the “Incidence of ankylosis (% of animals affected)” value (day 29 after immunization) of the same molecule?
A: 50%

Q: And the “Incidence of arthritis (% of animals affected)” value (day 29 after immunization)?
A: 80%

Q: What about the “Mean Arthritic Score” value (day 29 after immunization) of the same molecule?
A: 0.90

Q: And the “Mean number of affected paws” value (day 29 after immunization)?
A: 1.30

Q: What about the Ankylosis score (day 31 after immunization) of the same molecule?
A: 1.10

Q: And the “Incidence of ankylosis (% of animals affected)” value (day 31 after immunization)?
A: 50%

Q: What about the “Incidence of arthritis (% of animals affected)” value (day 31 after immunization) of the same molecule?
A: 70%

Q: And the “Mean Arthritic Score” value (day 31 after immunization)?
A: 1.03

Q: What about the “Mean number of affected paws” value (day 31 after immunization) of the same molecule?
A: 1.70

Q: What about the Ankylosis score (day 34 after immunization) of the same molecule?
A: 1.20

Q: What about the “Incidence of ankylosis (% of animals affected)” value (day 34 after immunization) of the same molecule?
A: 50%

Q: And the “Incidence of arthritis (% of animals affected)” value (day 34 after immunization)?
A: 60%

Q: And the “Mean Arthritic Score” value (day 34 after immunization)?
A: 0.80

Q: What about the “Mean number of affected paws” value (day 34 after immunization) of the same molecule?
A: 1.20

Q: And the Ankylosis score (day 36 after immunization)?
A: 1.40

Q: What about the “Incidence of ankylosis (% of animals affected)” value (day 36 after immunization) of the same molecule?
A: 60%

Q: And the “Incidence of arthritis (% of animals affected)” value (day 36 after immunization)?
A: 70%

Q: And the “Mean Arthritic Score” value (day 36 after immunization)?
A: 0.75

Q: And the “Mean number of affected paws” value (day 36 after immunization)?
A: 1.30

Q: And the Ankylosis score (day 37 after immunization (end of the experiment), 100 mg/kg)?
A: 1.2

Q: What about the “Incidence of ankylosis (% of animals affected)” value (day 37 after immunization) of the same molecule?
A: 60%

Q: What about the “Incidence of arthritis (% of animals affected)” value (day 37 after immunization) of the same molecule?
A: 60%

Q: And the “Mean Arthritic Score” value (day 37 after immunization)?
A: 0.80

Q: And the “Mean number of affected paws” value (day 37 after immunization)?
A: 1.30
